Values after ≈ are worked out from the molar mass of the structure shown. Where two headings read alike, the source gives them in different places.
Tests used:
[1] = Solubilization test of compound 1 with surfactants in FaSSIF; format: physicochemical; settings: for solubility at 0.5 h / solubility at 1 h / solubility at 2 h / solubility at 4 h: 37° C., read-out: Concentration of API in vehicle
Protocol: 50 mg of compound 1 was weighed into 5 mL of FaSSIF medium containing 5 mg of different surfactants (target concentration of API (compound 1):10 mg/mL). The mixture was shaken at 500 rpm and 37° C. 0.5 mL each of the suspension samples was taken at 0.5 hours, 1 hour, 2 hours, and 4 hours, respectively, centrifuged at 14,000 rpm for 5 minutes, and the supernatant was diluted and analyzed by HPLC.

[2] = Dynamic solubility test (two-step dissolution, SGF then FaSSIF) of solid dispersions; format: physicochemical; settings: 37° C.
Protocol: 20 mg each of the solid dispersion products from formulations 1 to 9 in Example 4 was taken and added with 3 mL of SGF (target concentration of API: […]). The mixture was stirred at 37° C. and 500 rpm for 0.25 hours and 0.5 hours, respectively, followed by sampling. 3 mL of 2× FaSSIF was then added to adjust the solution pH to approximately 6.5. The mixture was stirred for another 0.25 hours, 0.5 hours, 1 hour, and 1.5 hours, respectively, followed by sampling. The collected samples were analyzed by UPLC, and the final solution pH was measured.

[3] = FaSSIF (pH 6.5) with 5 mg Cremophor EL, 50 mg API in 5 mL
[4] = FaSSIF (pH 6.5) with 5 mg Cremophor RH40, 50 mg API in 5 mL
[5] = FaSSIF (pH 6.5) with 5 mg SLS, 50 mg API in 5 mL
[6] = FaSSIF (pH 6.5) with 5 mg Solutol HS15, 50 mg API in 5 mL
[7] = FaSSIF (pH 6.5) with 5 mg VE-TPGS, 50 mg API in 5 mL
[8] = FaSSIF (pH 6.5), no surfactant, 50 mg API in 5 mL
[9] = fassif with poloxamer 188, FaSSIF (pH 6.5) with 5 mg Poloxamer 188, 50 mg API in 5 mL
[10] = fassif with poloxamer 407, FaSSIF (pH 6.5) with 5 mg Poloxamer 407, 50 mg API in 5 mL
[11] = fassif with tween 80, FaSSIF (pH 6.5) with 5 mg Tween 80, 50 mg API in 5 mL

NS(=O)(=O)c1cc(NC(=O)Cc2ccccc2Cl)cc2nn(C(F)F)cc12 [compound 1]
solubility at 0.5 h [1, 3]: 1570 µg/mL (≈ 3800 µM)
solubility at 1 h [1, 3]: 1600 µg/mL (≈ 3870 µM)
solubility at 2 h [1, 3]: 1540 µg/mL (≈ 3710 µM)
solubility at 4 h [1, 3]: 1510 µg/mL (≈ 3640 µM)
solubility at 0.5 h [1, 4]: 1580 µg/mL (≈ 3820 µM)
solubility at 1 h [1, 4]: 1600 µg/mL (≈ 3870 µM)
solubility at 2 h [1, 4]: 1570 µg/mL (≈ 3780 µM)
solubility at 4 h [1, 4]: 1540 µg/mL (≈ 3710 µM)
solubility at 0.5 h [1, 5]: 614 µg/mL (≈ 1480 µM)
solubility at 1 h [1, 5]: 622 µg/mL (≈ 1500 µM)
solubility at 2 h [1, 5]: 639 µg/mL (≈ 1540 µM)
solubility at 4 h [1, 5]: 652 µg/mL (≈ 1570 µM)
solubility at 0.5 h [1, 6]: 1470 µg/mL (≈ 3530 µM)
solubility at 1 h [1, 6]: 1500 µg/mL (≈ 3620 µM)
solubility at 2 h [1, 6]: 1480 µg/mL (≈ 3570 µM)
solubility at 4 h [1, 6]: 1460 µg/mL (≈ 3510 µM)
solubility at 0.5 h [1, 7]: 2110 µg/mL (≈ 5100 µM)
solubility at 1 h [1, 7]: 2120 µg/mL (≈ 5120 µM)
solubility at 2 h [1, 7]: 2090 µg/mL (≈ 5040 µM)
solubility at 4 h [1, 7]: 2080 µg/mL (≈ 5010 µM)
solubility at 0.5 h [1, 8]: 33.9 µg/mL (≈ 81.7 µM)
solubility at 1 h [1, 8]: 22.9 µg/mL (≈ 55.2 µM)
solubility at 2 h [1, 8]: 15.2 µg/mL (≈ 36.6 µM)
solubility at 4 h [1, 8]: 14.9 µg/mL (≈ 35.9 µM)
Solubility of compound 1 with surfactants ([1]; FaSSIF with SLS, Cremophor EL, Cremophor RH40, VE-TPGS, Tween 80, Poloxamer 407, or Solutol HS15, in words): significantly improved
solubility at 0.5 h [1, 9]: 116 µg/mL (≈ 279 µM)
solubility at 1 h [1, 9]: 123 µg/mL (≈ 297 µM)
solubility at 2 h [1, 9]: 104 µg/mL (≈ 251 µM)
solubility at 4 h [1, 9]: 93.9 µg/mL (≈ 226 µM)
solubility at 0.5 h [1, 10]: 838 µg/mL (≈ 2020 µM)
solubility at 1 h [1, 10]: 861 µg/mL (≈ 2070 µM)
solubility at 2 h [1, 10]: 842 µg/mL (≈ 2030 µM)
solubility at 4 h [1, 10]: 797 µg/mL (≈ 1920 µM)
solubility at 0.5 h [1, 11]: 899 µg/mL (≈ 2170 µM)
solubility at 1 h [1, 11]: 893 µg/mL (≈ 2150 µM)
solubility at 2 h [1, 11]: 888 µg/mL (≈ 2140 µM)
solubility at 4 h [1, 11]: 887 µg/mL (≈ 2140 µM)
Solubility of API in vehicle ([2]; Step 1 (SGF, pH 1.6), 0.25 h, target API 2 mg/mL): 33.7 µg/mL
Solubility of API in vehicle ([2]; Step 1 (SGF, pH 1.6), 0.5 h, target API 2 mg/mL): 65.1 µg/mL
Solubility of API in vehicle ([2]; Step 2 (FaSSIF, pH 6.5), 0.75 h): 13.7 µg/mL
Solubility of API in vehicle ([2]; Step 2 (FaSSIF, pH 6.5), 1.0 h): 33.5 µg/mL
Solubility of API in vehicle ([2]; Step 2 (FaSSIF, pH 6.5), 2.0 h): 18.0 µg/mL
Solubility of API in vehicle ([2]; Step 2 (FaSSIF, pH 6.5), […]): 15.0 µg/mL
